Literature values as cited in patent US20060051384A1, “Antiseptic compositions and methods of use” (priority 2004, published 2006).

System: methicillin resistant staphylococcus aureus

povidone-iodine
decrease of activity on addition of nasal secretions: 80-90 wt %
